Data from paper PMC8835363, “Arachidin-1, a Prenylated Stilbenoid from Peanut, Induces Apoptosis in Triple-Negative Breast Cancer Cells” (International Journal of Molecular Sciences, 2022).

Test system: MDA-MB-436 cells
Test: RealTime-Glo MT cell viability (cytotoxicity) assay
Type: cell-based, human
Conditions: for IC50: Homo sapiens
Method: The cytotoxicity of RES, A-1, and A-3 was measured using the RealTime-Glo^TM MT Cell Viability Assay (Promega, Madison, WI, USA). The cells (10,000 cells/well) were seeded into 96-well plates. […] Cells with 0.1% DMSO (ATCC; Manassas, VA, USA) were included as a control. Luminescence was measured every 12 h for 72 total hours in a Cytation^TM 5 (BioTek, Winooski, VT, USA) plate reader. All experiments were performed in triplicates.

SMILES: CC(C)/C=C/c1c(O)cc(/C=C/c2ccc(O)c(O)c2)cc1O [A-1, arachidin-1]
- IC50 (MDA-MB-436, 24 h, MDA-MB-436, 24 h): 12000 nM
- IC50 (MDA-MB-436, 24 h, MDA-MB-436, 24 h, in Figure 2 panels): 1620 nM
- IC50 (MDA-MB-436, 48 h, MDA-MB-436, 48 h): 6200 nM
- IC50 (MDA-MB-436, 48 h, MDA-MB-436, 48 h, in Figure 2 panels): 2740 nM
- IC50 (MDA-MB-436, 72 h, MDA-MB-436, 72 h): 2090 nM
- IC50 (MDA-MB-436, 72 h, MDA-MB-436, 72 h, in Figure 2 panels): 2090 nM
- IC50 (MDA-MB-436, MDA-MB-436, all treatment time points): ~2000 nM
- antiproliferative effect (cell viability vs control) (MDA-MB-436, 1 µM, 24, 48, 72 h): cell proliferation reductions
- growth inhibition at low concentrations (MDA-MB-436, 0.01-10 µM, 72 h): higher inhibitory growth effects at lower micromolar concentrations when compared to RES
- fold lower IC50 of A-1 than A-3 (MDA-MB-436, 24 h): nine-fold
- fold lower IC50 of A-1 than RES (MDA-MB-436, 24 h): eight-fold
